From US20160046616A1, “NRF2 SMALL MOLECULE INHIBITORS FOR CANCER THERAPY” (THE JOHNS HOPKINS UNIVERSITY, priority 2013, published 2016) come the findings set out here.

The subject of experiment [1] is A549 NRF2-ARE-Fluc stable cell line. Put plainly: A549 Nrf2 assay: NRF2-ARE firefly luciferase reporter gene assay. The class given is cell-based. As to conditions: Homo sapiens, read-out: Potency of inhibition, A549. The text has this: A549, the parental cell line, is a non-small-cell lung cancer (NSCLC) cell line with loss-of-function (LOF) Keap1 activity, thus NRF2 transcription factor constitutively translocates into the nucleus to activate the expression of downstream target genes of NRF2. A firefly luciferase reporter (Fluc) construct driven by a minimal promoter of NRF2-specific anti-oxidant responsive element (ARE) is stably expressed in the A549 cells. Compounds that reduce the translocation of NRF2 into the nucleus or prevent the interaction between NRF2 and ARE will lead to a decrease in luciferase activity.
The final concentration of DMSO was maintained at 0.46%. Control compounds Budesonide and Staurosporine were both added at a concentration of 2 mM and Budesonide also was added as a 1:10 titration, starting at 200 μM, to achieve dose-response. After an 18-24 hour incubation at 37° C., 95% humidity, and 5% CO2, 1 μL of 5× CellTiter-Fluor non-lytic cell viability assay reagent (Promega, Madison, Wis.) was added into the each well of the plates. The plates were then incubated for 30 minutes at room temperature before they were read on a ViewLux plate imager (Perkin Elmer, Waltham, Mass.) using an excitation wavelength of 405 nm and an emission wavelength of 525 nm.
A cell based reporter assay approach was used for the identification of agents that could inhibit Nrf2 mediated gene expression (FIG. 1). A549-ARE-luciferase cells express the luciferase gene driven by a minimal promoter and an enhancer element containing an NRF2 binding site (Antioxidant Response Element, ARE).
(§1) Representative compounds were assayed to assess the potency of inhibition in an A549 NRF2-ARE-Fluc stable cell line (A549 Nrf2 assay), in an H838 NRF2-ARE-Fluc stable cell line (H838 Nrf2 assay), and in an H1437 NRF2-ARE-Fluc stable cell line (H1437 Nrf2 assay) (see Table 3).
Background: In a reporter assay the amount or activity of a reporter protein is the signal.

Experiment [2] deals with H1437 NRF2-ARE-Fluc stable cell line. Description: H1437 Nrf2 assay: NRF2-ARE firefly luciferase reporter gene assay. The class given is cell-based. As to conditions: Homo sapiens, NCI-H1437, H1437 NRF2-ARE-Fluc stable cell line; read-out: Potency of inhibition, H1437.
Description: H1437 is another NSCLC cell line with LOF Keap1 activity and constitutive translocation of NRF2 into the nucleus. A firefly luciferase reporter construct driven by a minimal promoter of NRF2-specific ARE is stably expressed in the H1437 cells. This cell line was used as a confirmation assay to make sure hits identified from primary screening and that passed counterscreen assays worked in different cell types with a constitutively active NRF2 pathway (deficiency in Keap1).
This assay was very similar to the primary assay except that the cell line was changed. […] The final concentration of DMSO was maintained at 0.46%. Control compounds Budesonide and Staurosporine were both added at a concentration of 2 mM and Budesonide was also added as a 1:10 titration, starting at 200 μM, to achieve dose-response. After an 18-24 hour incubation at 37° C., 95% humidity, and 5% CO2, 1 μL of 5× CellTiter-Fluor non-lytic cell viability assay reagent (Promega, Madison Wis.) was added into the each well of the plates. The plates were then incubated for 30 minutes at room temperature before they were read on a ViewLux plate imager (Perkin Elmer, Waltham Mass.) using an excitation wavelength of 405 nm and an emission wavelength of 525 nm.
as §1

Molecules are shown by their SMILES.

Regarding `CN(C1COC1)S(=O)(=O)c1ccc(NC(=O)c2ccc(CN3CCc4ccccc4C3)cc2)cc1` [compound 173], the IC50 in experiment [1] and in experiment [2] was < 5 µM in each case.

As to `Cc1cccc(Cc2cnc(NC(=O)c3ccn(-c4ccccc4)n3)s2)c1` [Compound 217], the IC50 in experiment [1] and in experiment [2] was 5 to 25 µM in each case.

For `O=C(Nc1ccc(S(=O)(=O)N2CCOCC2)cc1)c1cccc(CN2CCc3ccccc3C2)c1` [Compound 211], the IC50 in experiment [1] and in experiment [2] was 5 to 25 µM throughout.

For `O=C(Nc1ccccc1)c1ccc(CN2CCc3ccccc3C2)cc1` [compound 143], the values for the IC50 in experiment [1] and in experiment [2] were 5 to 25 µM and > 25 µM, respectively.

On to `O=C(NC1CCCN(Cc2ccccc2)C1)c1ccc(-c2cccc([N+](=O)[O-])c2)o1` (stereo not drawn) [Compound 103], for which the IC50 in experiment [1] and in experiment [2] was > 25 µM in each case.

As to `O=C(Nc1ncc(Cc2ccc(Cl)cc2)s1)c1ccn(-c2ccccc2)n1` [Compound 224], the IC50 in experiment [1] and in experiment [2] was < 5 µM in each case.

Turning to `Cc1ccc(C(=O)Nc2ccc(S(=O)(=O)N3CCOCC3)cc2)cc1` [compound 51], the figures for the IC50 in experiment [1] and in experiment [2] were 5 to 25 µM and > 25 µM, respectively.

As for `O=C(Nc1cncc(Cc2ccccc2)c1)c1ccc(-c2cccc([N+](=O)[O-])c2)o1` [Compound 170], the IC50 in experiment [1] and in experiment [2] was 5 to 25 µM in each case.

Consider `CC1c2ccccc2CCN1Cc1ccc(C(=O)Nc2ccc(S(=O)(=O)N3CCOCC3)cc2)cc1` (stereo not drawn) [Compound 230], for which the IC50 in experiment [1] and in experiment [2] was < 5 µM each time.

`O=C(Nc1ccc(Cl)c(S(=O)(=O)N2CCOCC2)c1)c1ccc(S(=O)(=O)N2CCOCC2)cc1` [compound 55]: the IC50 in experiment [1] and in experiment [2] was < 5 µM each time.

Consider `Cc1ccccc1C(=O)N1CCc2cc(-c3nc(NC(=O)Cc4ccc(O)cc4)sc3C)ccc21` [Compound 235, 2-(4-hydroxyphenyl)-N-(5-methyl-4-(1-(2-methylbenzoyl)indolin-5-yl)thiazol-2-yl)acetamide], for which the IC50 in experiment [1] and in experiment [2] was 5 to 25 µM throughout.

For the molecule `Cc1ccccc1CC(=O)Nc1nc(-c2ccc3c(c2)CCN3S(=O)(=O)c2ccccc2C)c(C)s1` [Compound 128], the IC50 in experiment [1] and in experiment [2] was < 5 µM in each case.

Regarding `O=C(Nc1ccnc(Cc2ccccc2)c1)c1ccc(-c2cccc([N+](=O)[O-])c2)o1` [Compound 177], the IC50 in experiment [1] and in experiment [2] was 5 to 25 µM throughout.

With `O=C(Nc1ncc(Cc2ccc(C(F)(F)F)cc2)s1)c1ccc(-c2ccccc2[N+](=O)[O-])o1` [Compound 18], the IC50 is 5 to 25 µM in experiment [1] and < 5 µM in experiment [2].

Consider `Cc1ccccc1C(=O)N1CCc2cc(-c3cncc(NC(=O)Cc4ccccc4)n3)ccc21` [Compound 104], for which the values for the IC50 in experiment [1] and in experiment [2] were < 5 µM and 5 to 25 µM, respectively.

As for `Cc1sc(NC(=O)Cc2ccc3c(c2)OCO3)nc1-c1ccc2c(c1)CCN2C(=O)c1ccccc1Cl` [Compound 116], the figures for the IC50 in experiment [1] and in experiment [2] were < 5 µM and > 25 µM, respectively.

For `Cc1ccccc1CCNC(=O)c1ccc(Cl)c(S(=O)(=O)N2CC(C)OC(C)C2)c1` (stereo not drawn) [Compound 44], the IC50 in experiment [1] and in experiment [2] was 5 to 25 µM each time.

On to `CCOC(=O)N1CCN(Cc2ccc(C(=O)Nc3ccc([S+](=O)([O-])N4CCOCC4)cc3)cc2)CC1` [Compound 202], for which the IC50 in experiment [1] and in experiment [2] was 5 to 25 µM each time.

Regarding `COc1ccc(Cc2cnc(NC(=O)c3ccn(-c4ccccc4)n3)s2)cc1` [Compound 223], the IC50 in experiment [1] and in experiment [2] was 5 to 25 µM throughout.

As to `O=C(Cc1ccccc1)Nc1cccc(-c2ccc3[nH]cnc3c2)n1` [Compound 57, N-(6-(1H-benzo[d]imidazol-5-yl)pyridin-2-yl)-2-phenylacetamide], the IC50 in experiment [1] and in experiment [2] was > 25 µM throughout.

Turning to `COc1ccc(CC(=O)Nc2nc(-c3ccc4c(c3)CCN4C(=O)c3ccnn3C)c(C)s2)cc1` [Compound 197], the IC50 in experiment [1] and in experiment [2] was < 5 µM throughout.

Regarding `Cc1noc(C)c1C(=O)N1CCc2cc(-c3nc(NC(=O)Cc4ccc5c(c4)OCO5)sc3C)ccc21` [Compound 183], the IC50 in experiment [1] and in experiment [2] was < 5 µM each time.

Consider `O=C(Nc1ncc(Cc2ccc(C(F)(F)F)cc2)s1)c1ccn(-c2cccc([N+](=O)[O-])c2)n1` [Compound 117], for which the IC50 is < 5 µM in experiment [1] and > 25 µM in experiment [2].

On to `Cc1ccccc1S(=O)(=O)N1CCc2cc(-c3nc(NC(=O)Cc4ccc5c(c4)OCO5)sc3C)ccc21` [Compound 24], for which the IC50 in experiment [1] is < 5 µM; in experiment [2], 5 to 25 µM.

As to `O=C(Nc1ncc(Cc2ccc(C(F)(F)F)cc2)s1)c1ccco1` [Compound 15], the IC50 in experiment [1] and in experiment [2] was > 25 µM each time.

On to `Cc1ccccc1C(=O)N1CCc2cc(-c3nc(NS(=O)(=O)Cc4ccccc4)sc3C)ccc21` [Compound 109], for which the IC50 in experiment [1] and in experiment [2] was 5 to 25 µM in each case.

In the case of `Cc1csc2ncnc(N3CCN(S(=O)(=O)c4cccc(C(F)(F)F)c4)CC3)c12` [Compound 43], the IC50 in experiment [1] was 5 to 25 µM; in experiment [2] it was < 5 µM.

With `CC1Cc2ccccc2CN1Cc1ccc(C(=O)Nc2ccc([S+](=O)([O-])N3CCOCC3)cc2)cc1` (stereo not drawn) [Compound 206], the IC50 in experiment [1] and in experiment [2] was < 5 µM each time.

Turning to `Cc1ccccc1C(=O)N1CCc2cc(-c3nc(NC(=O)Cc4cccc(OCCOCCOCCNC(=O)OC(C)(C)C)c4)sc3C)ccc21` [Compound 237, tert-butyl (2-(2-(2-(3-(2-((5-methyl-4-(1-(2-methylbenzoyl)indolin-5-yl)thiazol-2-yl)amino)-2-oxoethyl)phenoxy)ethoxy)ethoxy)ethyl)carbamate], the IC50 in experiment [1] and in experiment [2] was < 5 µM in each case.

As for `O=C(Nc1ccc(S(=O)(=O)N2CCOC(c3ccccc3)C2)cc1)c1ccc(CN2CCc3ccccc3C2)cc1` (stereo not drawn) [compound 171], the values for the IC50 in experiment [1] and in experiment [2] were < 5 µM and > 25 µM, respectively.

Turning to `Cc1sc(NC(=O)Cc2ccc3c(c2)OCO3)nc1-c1ccc2c(c1)CCN2` [Compound 17, 2-(Benzo[d][1,3]dioxol-5-yl)-N-(4-(indolin-5-yl)-5-methylthiazol-2-yl)acetamide], the results for the IC50 in experiment [1] and in experiment [2] were 5 to 25 µM and > 25 µM, respectively.

For the molecule `COc1ccc(CC(=O)Nc2nc(-c3ccc4c(c3)CC(C)N4C(=O)c3ccccc3C)c(C)s2)cc1` (stereo not drawn) [Compound 232], the IC50 in experiment [1] and in experiment [2] was 5 to 25 µM throughout.

For the molecule `Cc1ccccc1C(=O)N1CCc2cc(-c3nc(NC(=O)Cc4cccc(O)c4)sc3C)ccc21` [Compound 234, 2-(3-hydroxyphenyl)-N-(5-methyl-4-(1-(2-methylbenzoyl)indolin-5-yl)thiazol-2-yl)acetamide], the IC50 in experiment [1] and in experiment [2] was 5 to 25 µM throughout.

`O=C(Nc1ccc(OC(F)(F)F)cc1)c1ccc(CN2CCc3ccccc3C2)cc1` [compound 178]: the IC50 in experiment [1] and in experiment [2] was < 5 µM throughout.

Take `O=C(Nc1cccc(Nc2ccccc2)c1)c1ccc(-c2cccc([N+](=O)[O-])c2)o1` [Compound 137]: the results for the IC50 in experiment [1] and in experiment [2] were < 5 µM and > 25 µM, respectively.

As to `Cc1ccccc1C(=O)N1CCc2cc(-c3nc(NC(=O)CN4CCN(C(=O)OC(C)(C)C)CC4)sc3C)ccc21` [Compound 69, tert-butyl 4-(2-((5-methyl-4-(1-(2-methylbenzoyl)indolin-5-yl)thiazol-2-yl)amino)-2-oxoethyl)piperazine-1-carboxylate], the IC50 in experiment [1] and in experiment [2] was < 5 µM throughout.

As to `Cc1ccccc1C(=O)N1CCc2cc(-c3ccnc(NC(=O)Cc4ccccc4)n3)ccc21` [Compound 102], the IC50 was 5 to 25 µM in experiment [1] and > 25 µM in experiment [2].

For `Cc1sc(NC(=O)Cc2ccc3c(c2)OCO3)nc1-c1ccc2c(c1)CCN2C(=O)c1sccc1Cl` [Compound 186], the IC50 in experiment [1] and in experiment [2] was < 5 µM in each case.

With `Cc1ccncc1C(=O)N1CCc2cc(-c3nc(NC(=O)Cc4ccc5c(c4)OCO5)sc3C)ccc21` [Compound 140], the IC50 in experiment [1] and in experiment [2] was < 5 µM each time.
